This is an account of results in patent publication US20220348571A1, “DIHYDROPYRIMIDINE DERIVATIVES AND USES THEREOF IN THE TREATMENT OF HBV INFECTION OR OF HBV-INDUCED DISEASES” (Janssen Sciences Ireland Unlimited Company, priority 2018, published 2022).

The term EC50 denotes the concentration giving half of the maximal effect. The term CC50 denotes the concentration at which the toxic effect on the cells reaches its halfway point. Read a low CC50 as greater toxicity to the cells.

Holding throughout (assay type): cell-based
One series has as its system HBV. Description: Anti-viral assay in HepG2.2.15 cells: HBV inhibitory activity (HBV DNA in culture medium by q-PCR). As to conditions: Hepatitis B virus, HepG2.2.15, 144 h. The text has this: (§1) Example 2: Anti-Viral Assay in HepG2.2.15 Cells
(§2) 1.1. Cell line • HepG2.2.15 (the HepG2.2.15 cell line can be produced by transfection of the HepG2 cell line as described in Sells, Chen, and Acs 1987 (Proc. Natl. Acad. Sci. USA 84:1005-1009), and the HepG2 cell line is available from ATCC® under number HB-8065™).
(§3) Seed the cell HepG2.2.15 cells into 96-well plate in 2% FBS culture medium at the density of 40,000 cells/well and 5,000 cells/well for HBV inhibitory activity and cytotoxicity determination, respectively. After seeding, incubate the cell plates at 37° C., 5% CO2 overnight. The next day, medium containing compounds is added to the cell to treat the cells for 6 days with medium refreshed once in the middle of the treatment. 8 dose points with 3 folds dilution of each compound were adopted and the highest concentration of the compounds is 10 uM and 100 uM for HBV inhibitory activity and cytotoxicity determination, respectively.
The HBV DAN change in the cell culture medium induced by the compounds is measured by q-PCR method. Briefly, the HBV DNA in the culture medium is extracted using QIAamp 96 DNA Blood Kit according to the manual and then quantified by q-PCR using the primers and probe in the table below.
(§4) 2.2. DATA Analysis EC50 and CC50 values are calculated by the GRAPHPAD PRISM software.

The test system of another series is HepG2.2.15 cells. The experiment in a line: Cytotoxicity determination in HepG2.2.15 cells (CCK-8). Conditions: 6 days treatment, CCK-8, highest concentration 100 uM.
From the text: as §1, §2, §3
(§5) After 6 days of compounds treatment, add 20 μl CCK-8 reagents to each well of cytotoxicity assay plates, incubate the plate at 37° C., 5% CO2 for 2.5 h and measure the absorbance at 450 nm wavelength, at the same time read the absorbance at 630 nm wavelength as reference.
as §4

Test in series [1]: as above
As to conditions: human, 6 days treatment, CCK-8, highest concentration 100 uM.
From the text: as §1, §2, §3, §5, §4

The mark [2] stands for this setting: HepG2.2.15 cells, 6 days treatment, HBV DNA in culture medium by q-PCR, highest concentration 10 uM, read-out: EC50.

Structures can show the parent of a compound that is named as a salt. Where two headings read alike, the source gives them in different places.

Molecule `CCOC(=O)C1=C(C2CCN(c3nc(C)c(C(=O)O)o3)CC2)NC(c2nccs2)=NC1c1ccc(F)c(F)c1Cl` (single isomer, unassigned) [II-64-B, Lithium 2-(4-(6-(2-chloro-3,4-difluorophenyl)-5-(ethoxycarbonyl)-2-(thiazol-2-yl)-3,6-dihydropyrimidin-4-yl)piperidin-1-yl)-4-methyloxazole-5-carboxylate] yielded an EC50 in the series on HBV of 75 nM. For the same molecule, the midpoint of cytotoxicity in the series with HepG2.2.15 cells, the CC50, lay at 6840 nM. Molecule `CCOC(=O)Cc1coc([C@H]2CC[C@H](C3=C(C(=O)OCC)C(c4ccc(F)c(F)c4Cl)N=C(c4nccs4)N3)CC2)n1` (single isomer, unassigned) [VII-23-Y, (trans)-Ethyl 4-(2-chloro-3,4-difluorophenyl)-(4-(4-(2-ethoxy-2-oxoethyl)oxazol-2-yl)cyclohexyl)-2-(thiazol-2-yl)-1,4-dihydropyrimidine-5-carboxylate] showed a half-maximal cytotoxic concentration (CC50) at 6 days in series [1] of 8180 nM. For `COC(=O)C1=C(C2CCN(c3ncc(C)c(C(=O)O)n3)CC2)NC(c2nccs2)=NC1c1cccc(F)c1C` (single isomer, unassigned) [II-5-B], the EC50 in the series with HBV (setting [2]) came out at 49 nM. The molecule further came in with a half-maximal cytotoxic concentration (CC50) at 6 days in series [1] of 25800 nM.

In the series with HBV, `CCOC(=O)C1=C(C2CCN(c3cnc(C(=O)O)s3)CC2)NC(c2nccs2)=NC1c1ccc(F)c(F)c1Cl` (single isomer, unassigned) [II-76-B, 5-(4-(6-(2-Chloro-3,4-difluorophenyl)-5-(ethoxycarbonyl)-2-(thiazol-2-yl)-3,6-dihydropyrimidin-4-yl)piperidin-1-yl)thiazole-2-carboxylate lithium salt] yielded an EC50 of 90 nM. This molecule registered a CC50 in the series with HepG2.2.15 cells of 6680 nM.

With `CCOC(=O)C1=C(C2CCN(c3ncc(C(=O)O)c(OC)n3)CC2)NC(c2nccs2)=NC1c1ccc(F)c(F)c1Cl` (single isomer, unassigned) [II-72-B, 2-(4-(6-(2-Chloro-3,4-difluorophenyl)-5-(ethoxycarbonyl)-2-(thiazol-2-yl)-3,6-dihydropyrimidin-4-yl)piperidin-1-yl)-4-methoxypyrimidine-5-carboxylic acid], the concentration giving a half-maximal response (EC50) in the series with HBV (setting [2]) was found to be 62 nM. The molecule further had a CC50 at 6 days in series [1] of 5590 nM.

As for `CCOC(=O)C1=C([C@H]2CC[C@@H](n3nccc3C(=O)O)CC2)NC(c2nccs2)=NC1c1ccc(F)c(F)c1Cl` (single isomer, unassigned) [Compound I-39-B, (cis)-1-(4-(6-(2-Chloro-3,4-difluorophenyl)-5-(ethoxycarbonyl)-2-(thiazol-2-yl)-3,6-dihydropyrimidin-4-yl)cyclohexyl)-1H-pyrazole-5-carboxylic acid], in the series with HBV (setting [2]), the EC50 came to 82 nM.
